Laboratory results from patent US12466781B2, “Thyromimetics” (Autobahn Therapeutics, Inc., priority 2019, dated 2025).
pEC50: −log10 of the molar value. Read-outs that look alike come from different tables or passages of the source.

Legend:
[1] = biological target: T1, TRβ (Homo sapiens, UniProt P10828); assay: Thyroid-hormone reporter-gene assay (TRβ-Gal4 hybrid, luciferase, HEK293); type: cell-based; conditions: for T3-SI (selectivity index): calculated as EC50 (TRα)/EC50 (TRβ)
T1 construct: expressed in transfected cells; host or cells: HEK293
T1 sequence (P10828 217-461 limits assumed): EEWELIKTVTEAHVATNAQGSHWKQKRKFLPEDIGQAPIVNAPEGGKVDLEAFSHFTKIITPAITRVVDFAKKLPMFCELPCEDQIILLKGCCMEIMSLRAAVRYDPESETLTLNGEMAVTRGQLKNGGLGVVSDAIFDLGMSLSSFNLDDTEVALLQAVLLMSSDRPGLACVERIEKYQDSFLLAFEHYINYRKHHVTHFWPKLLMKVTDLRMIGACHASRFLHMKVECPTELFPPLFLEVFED
Method: (§1) Compounds were tested for thyroid-hormone receptor activity using TR reporter-gene assays. Reporter cells used in the assays express a TR-receptor hybrid (either TRα or TRβ) in which the native N-terminal DNA binding domain (DBD) has been replaced with that of the yeast Gal4 DBD. The reporter gene, firefly luciferase, is functionally linked to the Gal4 upstream activation sequence (UAS). Both cell lines were derived from human embryonic kidney (HEK293).
(§2) Step 1: A suspension of reporter cells was prepared in cell recovery medium containing 10% charcoal-stripped FBS, and dispensed into assay plates. The plates were pre-incubated for 6 hours in a cell culture incubator (37° C./5% CO2/85% humidity).
(§3) These intermediate stocks were subsequently diluted directly into compound screening medium containing 10% charcoal-stripped FBS to generate “2×-concentration” treatment media (containing 0.2, 0.4 or 0.8% DMSO).
(§4) Step 3: At the end of the pre-incubation period, culture media were discarded from the assay plates, and all wells received 100 μl of compound screening medium. 100 μl of each of the previously prepared “2×-concentration” treatment media were dispensed into duplicate assay wells, thereby achieving the desired final treatment concentrations. The final concentration of DMSO in all assay wells was 0.1, 0.2 or 0.4%. Assay plates were incubated for 24 hr in a cell culture incubator (37° C./5% CO2/85% humidity).
(§5) Step 4: At the 24 h assay endpoint, treatment media were discarded and 100 μl/well of luciferase detection reagent was added. Relative luminometer units (RLUs) were quantified from each assay well.

[2] = biological target: T2, TRα (Homo sapiens, UniProt P10827); assay: Thyroid-hormone reporter-gene assay (TRα-Gal4 hybrid, luciferase, HEK293); type: cell-based
T2 construct: expressed in transfected cells; host or cells: HEK293
T2 sequence (P10827 163-410 isoform P10827-2 limits assumed): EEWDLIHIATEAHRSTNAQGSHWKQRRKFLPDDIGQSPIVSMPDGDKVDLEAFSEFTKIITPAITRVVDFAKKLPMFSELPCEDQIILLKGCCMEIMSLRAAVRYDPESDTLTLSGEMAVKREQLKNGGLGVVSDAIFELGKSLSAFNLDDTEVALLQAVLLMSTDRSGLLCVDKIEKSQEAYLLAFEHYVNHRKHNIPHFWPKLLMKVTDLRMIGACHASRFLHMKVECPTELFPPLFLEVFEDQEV
Method: as §1, §2, §3, §4, §5

[3] = reporter cells, 24 hr incubation, Table 2, read-out: TRβ (EC50)
[4] = reporter cells, 24 hr incubation, Table 2, read-out: TRα (EC50)

| SMILES | T3-SI (selectivity index) ([1]; Table 2) | pEC50 [1, 3] | pEC50 [2, 4] | pEC50 ([1]; Table 3, read-out: EC50-TRβ) | T3-SI ([1]; selectivity index, Table 3) | pEC50 ([2]; Table 3, read-out: EC50-TRα) |
| --- | --- | --- | --- | --- | --- | --- |
| CCCC(c1ccc(F)cc1)c1cc(Cc2c(Cl)cc(OCC(=O)O)c(F)c2Cl)ccc1O (stereo not drawn) [Compound 85, 2-(3,5-dichloro-2-fluoro-4-(3-(1-(4-fluorophenyl)butyl)-4-hydroxybenzyl)phenoxy)acetic acid] | +++ (T3-SI>30×) | 6.00 to 7.00 | < 6.00 | – | – | – |
| C=C(C)c1cc(OCC(=O)O)c(F)c(Cl)c1Cc1ccc(O)c(C(C)C)c1 [Compound 79, 2-(3-chloro-2-fluoro-4-(4-hydroxy-3-isopropylbenzyl)-5-(prop-1-en-2-yl)phenoxy)acetic acid] | +++ (T3-SI>30×) | 7.00 to 8.00 | 6.00 to 7.00 | – | – | – |
| Cc1cc(OCC(=O)O)c(F)c(C)c1Cc1ccc(O)c(C(C)C)c1F [Compound 93, 2-(2-fluoro-4-(2-fluoro-4-hydroxy-3-isopropylbenzyl)-3,5-dimethylphenoxy)acetic acid] | +++ (T3-SI>30×) | 7.00 to 8.00 | 6.00 to 7.00 | – | – | – |
| CNC(=O)COc1cc(C)c(Cc2ccc(O)c(C(C)C)c2)c(F)c1F [Compound 133, 2-(2,3-difluoro-4-(4-hydroxy-3-isopropylbenzyl)-5-methylphenoxy)-N-methylacetamide] | ++ (3×<T3-SI≤30×) | 7.00 to 8.00 | 7.00 to 8.00 | – | – | – |
| Cc1cc(OCC(=O)O)c(F)c(Cl)c1Cc1ccc(O)c(C(C)C)c1 [Compound 115, 2-(3-chloro-2-fluoro-4-(4-hydroxy-3-isopropylbenzyl)-5-methylphenoxy)acetic acid] | ++ (3×<T3-SI≤30×) | 7.00 to 8.00 | 6.00 to 7.00 | – | – | – |
| COc1c(Cc2c(Cl)cc(OCC(=O)O)cc2Cl)ccc(O)c1C(C)C [Compound 54, 2-(3,5-dichloro-4-(4-hydroxy-3-isopropyl-2-methoxybenzyl)phenoxy)acetic acid] | ++ (3×<T3-SI≤30×) | 6.00 to 7.00 | < 6.00 | – | – | – |
| Cc1cc(OCC(=O)O)cc(C)c1Cc1ccc(O)c(C(C)C)c1F [Compound 2, 2-(4-(2-fluoro-4-hydroxy-3-isopropylbenzyl)-3,5-dimethylphenoxy)acetic acid] | ++ (3×<T3-SI≤30×) | 6.00 to 7.00 | < 6.00 | – | – | – |
| O=C(O)COc1cc(Cl)c(Cc2ccc(O)c(-c3cc(OC(F)F)ccc3F)c2F)c(Cl)c1F [Compound 101, 2-(3,5-dichloro-4-((5′-(difluoromethoxy)-2,2′-difluoro-6-hydroxy-[1,1′-biphenyl]-3-yl)methyl)-2-fluorophenoxy)acetic acid] | ++ (3×<T3-SI≤30×) | 6.00 to 7.00 | < 6.00 | – | – | – |
| CC(C)c1cc(Cc2c(Cl)cc(OCC(=O)O)cc2Cl)ccc1O [JD-21, reference compound] | – | – | – | 7.10 | 14 | 6.72 |
| CC(C)c1cc(Cc2c(C(C)C)cc(OCC(=O)O)c(F)c2Cl)ccc1O [Compound 81, 2-(3-chloro-2-fluoro-4-(4-hydroxy-3-isopropylbenzyl)-5-isopropylphenoxy)acetic acid] | ++ (3×<T3-SI≤30×) | 7.00 to 8.00 | 7.00 to 8.00 | – | – | – |
| Cc1c(OCC(=O)O)cc(Cl)c(Cc2ccc(O)c(C(C)C)c2)c1Cl [Compound 91, 2-(3,5-dichloro-4-(4-hydroxy-3-isopropylbenzyl)-2-methylphenoxy)acetic acid] | +++ (T3-SI>30×) | 7.00 to 8.00 | 6.00 to 7.00 | – | – | – |
| C=Cc1c(F)c(OCC(=O)O)cc(Cl)c1Cc1ccc(O)c(C(C)C)c1 [Compound 67, 2-(5-chloro-2-fluoro-4-(4-hydroxy-3-isopropylbenzyl)-3-vinylphenoxy)acetic acid] | ++ (3×<T3-SI≤30×) | 7.00 to 8.00 | 6.00 to 7.00 | – | – | – |
| CC(c1ccc(F)cc1)c1c(O)ccc(Cc2c(Cl)cc(OCC(=O)O)c(F)c2Cl)c1F (stereo not drawn) [Compound 107, 2-(3,5-dichloro-2-fluoro-4-(2-fluoro-3-(1-(4-fluorophenyl)ethyl)-4-hydroxybenzyl)phenoxy)acetic acid] | ++ (3×<T3-SI≤30×) | 7.00 to 8.00 | 7.00 to 8.00 | – | – | – |
| CC(C)c1cc(Cc2c(Cl)cc(OCC(=O)O)c(Cl)c2Cl)ccc1O [Compound 89, 2-(2,3,5-trichloro-4-(4-hydroxy-3-isopropylbenzyl)phenoxy)acetic acid] | ++ (3×<T3-SI≤30×) | 7.00 to 8.00 | 7.00 to 8.00 | – | – | – |
| CC(C)c1c(O)ccc(Cc2c(Cl)cc(OCC(=O)O)cc2Cl)c1Cl [Compound 49, 2-(3,5-dichloro-4-(2-chloro-4-hydroxy-3-isopropylbenzyl)phenoxy)acetic acid] | ++ (3×<T3-SI≤30×) | 7.00 to 8.00 | 6.00 to 7.00 | – | – | – |

Next, values leading:

| T3-SI (selectivity index) ([1]; Table 2) | pEC50 [1, 3] | pEC50 [2, 4] | pEC50 ([1]; Table 3, read-out: EC50-TRβ) | T3-SI ([1]; selectivity index, Table 3) | pEC50 ([2]; Table 3, read-out: EC50-TRα) | SMILES |
| --- | --- | --- | --- | --- | --- | --- |
| ++ (3×<T3-SI≤30×) | > 8.00 | 7.00 to 8.00 | – | – | – | C=C(C)c1cc(OCC(=O)O)cc(C)c1Cc1ccc(O)c(C(C)C)c1F [Compound 12, 2-(4-(2-fluoro-4-hydroxy-3-isopropylbenzyl)-3-methyl-5-(prop-1-en-2-yl)phenoxy)acetic acid] |
| ++ (3×<T3-SI≤30×) | > 8.00 | > 8.00 | – | – | – | CC(C)c1cc(OCC(=O)O)cc(Cl)c1Cc1ccc(O)c(C(C)C)c1F [Compound 47, 2-(3-chloro-4-(2-fluoro-4-hydroxy-3-isopropylbenzyl)-5-isopropylphenoxy)acetic acid] |
| ++ (3×<T3-SI≤30×) | > 8.00 | 7.00 to 8.00 | – | – | – | Cc1cc(OCC(=O)O)cc(C)c1Cc1ccc(O)c(C(C)c2ccc(F)cc2)c1F (stereo not drawn) [Compound 6, 2-(4-(2-fluoro-3-(1-(4-fluorophenyl)ethyl)-4-hydroxybenzyl)-3,5-dimethylphenoxy)acetic acid] |
| +++ (T3-SI>30×) | 7.00 to 8.00 | 6.00 to 7.00 | – | – | – | Cc1c(F)c(OCC(=O)O)cc(Cl)c1Cc1ccc(O)c(C(C)C)c1 [Compound 118, 2-(5-chloro-2-fluoro-4-(4-hydroxy-3-isopropylbenzyl)-3-methylphenoxy)acetic acid] |
| ++ (3×<T3-SI≤30×) | 7.00 to 8.00 | 7.00 to 8.00 | – | – | – | Cc1cc(OCC(=O)O)cc(Cl)c1Cc1ccc(O)c(C(C)C)c1F [Compound 36, 2-(3-chloro-4-(2-fluoro-4-hydroxy-3-isopropylbenzyl)-5-methylphenoxy)acetic acid] |
| ++ (3×<T3-SI≤30×) | > 8.00 | > 8.00 | – | – | – | CC(C)c1c(O)ccc(Cc2c(Cl)cc(OCC(=O)O)cc2Br)c1F [Compound 40, 2-(3-bromo-5-chloro-4-(2-fluoro-4-hydroxy-3-isopropylbenzyl)phenoxy)acetic acid] |
| +++ (T3-SI>30×) | 7.00 to 8.00 | 6.00 to 7.00 | – | – | – | C=Cc1cc(OCC(=O)O)c(F)c(Cl)c1Cc1ccc(O)c(C(C)C)c1 [Compound 75, 2-(3-chloro-2-fluoro-4-(4-hydroxy-3-isopropylbenzyl)-5-vinylphenoxy)acetic acid] |
| ++ (3×<T3-SI≤30×) | 7.00 to 8.00 | 6.00 to 7.00 | – | – | – | O=C(O)COc1cc(Cl)c(Cc2ccc(O)c(-c3cc(OC(F)F)ccc3F)c2F)c(Cl)c1 [Compound 26, 2-(3,5-dichloro-4-((5′-(difluoromethoxy)-2,2′-difluoro-6-hydroxy-[1,1′-biphenyl]-3-VI)methyl)phenoxy)acetic acid] |
| +++ (T3-SI>30×) | 7.00 to 8.00 | 6.00 to 7.00 | – | – | – | CNC(=O)COc1cc(C)c(Cc2ccc(O)c(C(C)C)c2)c(Cl)c1F [Compound 143, 2-(3-chloro-2-fluoro-4-(4-hydroxy-3-isopropylbenzyl)-5-methylphenoxy)-N-methylacetamide] |
| ++ (3×<T3-SI≤30×) | > 8.00 | 7.00 to 8.00 | – | – | – | Cc1c(F)c(OCC(=O)O)cc(Cl)c1Cc1ccc(O)c(C(C)C)c1F [Compound 112, 2-(5-chloro-2-fluoro-4-(2-fluoro-4-hydroxy-3-isopropylbenzyl)-3-methylphenoxy)acetic acid] |
| ++ (3×<T3-SI≤30×) | > 8.00 | 7.00 to 8.00 | – | – | – | CC(C)c1c(O)ccc(Cc2c(Cl)cc(OCC(=O)O)c(F)c2Cl)c1F [Compound 97, 2-(3,5-dichloro-2-fluoro-4-(2-fluoro-4-hydroxy-3-isopropylbenzyl)phenoxy)acetic acid] |
